Laboratory results: article PMC5587527, “A fragment-based approach leading to the discovery of a novel binding site and the selective CK2 inhibitor CAM4066” (Bioorganic & Medicinal Chemistry, 2017)

Legend:
CK2α [1] = target: T1, CK2α (Homo sapiens, UniProt P68400); assay: biochemical; conditions: read-out: % Inhibition at 500 μM
CK2α [2] = target: T1, CK2α; conditions: from ITC Kd

T1 sequence (P68400 whole entry): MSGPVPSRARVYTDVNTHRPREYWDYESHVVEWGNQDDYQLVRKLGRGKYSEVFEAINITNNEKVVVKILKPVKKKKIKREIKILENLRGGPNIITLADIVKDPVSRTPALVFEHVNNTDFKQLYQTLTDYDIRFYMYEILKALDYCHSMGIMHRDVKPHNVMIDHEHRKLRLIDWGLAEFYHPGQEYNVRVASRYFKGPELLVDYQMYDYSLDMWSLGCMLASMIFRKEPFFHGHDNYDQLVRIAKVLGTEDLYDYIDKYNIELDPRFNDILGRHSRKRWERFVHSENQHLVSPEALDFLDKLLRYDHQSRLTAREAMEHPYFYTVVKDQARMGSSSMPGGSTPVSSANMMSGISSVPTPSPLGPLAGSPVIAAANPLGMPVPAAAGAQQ

| SMILES | inhibition at 500 µM (CK2α [1]) [%] | ligand efficiency (CK2α [2]) |
| --- | --- | --- |
| CCNCc1ccc(-c2ccccc2)c(Cl)c1 [Compound 11] | 23 ± 6 | – |
| O=C(O)CC(=O)NCCCNCc1ccc(-c2ccccc2)c(Cl)c1 [Compound 20] | 20 ± 4 | 0.19 |
| OCCCNCc1ccc(-c2ccccc2)c(Cl)c1 [Compound 13] | 47 ± 5 | – |
| CS(=O)(=O)NCCCNCc1ccc(-c2ccccc2)c(Cl)c1 [Compound 18] | 51 ± 10 | – |
| NC(=O)CCNCc1ccc(-c2ccccc2)c(Cl)c1 [Compound 16] | 16 ± 6 | – |
| CC(=O)NCCCNCc1ccc(-c2ccccc2)c(Cl)c1 [Compound 15] | 39 ± 3 | – |
| CC(=O)NCCNCc1ccc(-c2ccccc2)c(Cl)c1 [Compound 17] | 12 ± 4 | – |
| NCCCCNCc1ccc(-c2ccccc2)c(Cl)c1 [Compound 14] | 18 ± 2 | – |
| CCCNCc1ccc(-c2ccccc2)c(Cl)c1 [Compound 12] | 33 ± 5 | – |
| CNCc1ccc(-c2ccccc2)c(Cl)c1 [Compound 10] | 44 ± 12 | – |
| COC(=O)CC(=O)NCCCNCc1ccc(-c2ccccc2)c(Cl)c1.Cl [Compound 19] | 46 ± 2 | 0.23 |
